From a melting point compilation (Tetko et al.; mined from patent text by program, amines drawn as free bases though some values may be those of a salt) come the findings set out here.

Broadly, the melting point is the temperature, or range, at which the solid turns liquid. `Clc1ccc(OCc2cccs2)cc1` gave a melting point of 45 to 47 °C.
To `CC(=O)N(C(=O)OC(C)(C)C)c1ccc(-c2nc3n(Cc4c(F)cccc4F)c(C)c(Cc4ccccc4)c(=O)n3c2C)cc1` belongs 176 to 177 °C.
To `CNC(=O)NC1(C)CCCc2ccccc21` (stereo unspecified) belongs 183 to 186 °C; to `COc1ccc(C(=CC=Cc2ccc(N(c3ccc(C)cc3)c3ccc(C)cc3)cc2)c2ccc(OC)cc2)cc1`, 133 to 135 °C; to `Nc1ccc(C=C2NC(=O)NC2=O)cc1`, 300 °C.
On to `O=Cc1cccc2nnsc12`, for which the melting point was in the range of 134 to 136 °C.
For the compound `COc1cc2c(cc1C(F)(F)F)N(C(=O)Nc1cccc(C(=O)Nc3cccnc3)c1)CC2`, the melting point is greater than 220 °C.
To `O=C(O)C(CC1CCCC1)c1ccc(Cl)c(Cl)c1` (stereo unspecified) belongs 74.5 to 76.9 °C.
The compound `COc1ccccc1/C=C/C(=O)/C=C/c1ccccc1OC` registered a melting point of 124 to 126 °C.
`CCC1(C)CC2(NC(=O)N(c3ccccc3)C2=O)C(C)C(C)(CC)N1` (stereo unspecified) registered a melting point of 150 to 153 °C.
Under `CN(C)C(=O)N(N)c1ccc(F)c(Cl)c1` stands 88 to 89 °C.
In the case of `COc1ccc(-c2csc(N(C(C)=O)c3cc4ccccc4cn3)n2)cc1OC`, the melting point lay in the range of 164 to 165 °C.
The compound `COc1cccc(C(CCN2CCN(Cc3cccc(F)c3)CC2)C2(O)CCCCC2)c1` (stereo unspecified) came in with a melting point of 131 to 133 °C.
With `CC(=O)NCC1CN(c2ccc(N3CCC(O)(C#N)C(C)(C)C3)c(F)c2)C(=O)O1` (stereo unspecified), the melting point fell in the range of 65 to 68 °C.
For the compound `CCCCN(Cc1ccc(-c2ccccc2-c2nnn[nH]2)cc1)c1ncn(C)c1C(=O)OCC`, the melting point was in the range of 203 to 204 °C.
The compound `O=c1cc(-c2ccncc2)nc2n1CCN2CCCc1c[nH]c2ccccc12` showed a melting point of 218 to 220 °C.
In the case of `N#Cc1ccc(C(=O)c2ccc(OC3OC(CO)C(O)C(O)C3O)cc2)cc1` (stereo unspecified), the melting point was 122 °C.
Under `O=C(O)c1ccc(-c2n[nH]c(-c3ccccc3)n2)cc1` stands greater than 300 °C; under `C=CC(=O)Oc1ccc(Cl)c2c1Sc1ccccc1C2`, 164 to 165 °C; under `O=[N+]([O-])c1ccc(C=NCCc2cccs2)cc1`, 83.9 to 84.4 °C.
The compound `O=C1CCCCCN1C(=O)c1ccccc1` yielded a melting point of 69 °C.
Take `O=C1CCC(C(=O)NCc2cccc3ccccc23)c2ccccc21` (stereo unspecified): the melting point lay in the range of 155 to 156 °C.
To `O=C(O)C(Cc1ccccc1)Oc1ccc(-c2ccc(-c3c(Cc4ccccc4)sc4ccccc34)cc2)cc1` (stereo unspecified) belongs 165 to 167 °C; to `CCn1c(C#N)ccc1-c1ccc2c(c1)C(C)(C)OC(=O)N2`, 200 to 202 °C.
Take `CCOc1cc(Cn2cc(CCC(=O)O)c(-c3ccccc3)c2)cc(OCc2csc(-c3cccs3)n2)c1`: the melting point is 104 to 105 °C.
As for `CCOC(=O)c1ccc(NC2(C#N)CCCCC2)cc1`, the melting point was in the range of 101 to 102 °C.
`CCCCCCCCc1ccc(NC(=O)Nc2ccc(S(N)(=O)=O)cc2)cc1` yielded a melting point of 282 to 283 °C.
To `N#Cc1cnc2cc(-c3cc(CN4CCOCC4)c(CN4CCOCC4)s3)ccc2c1Nc1ccc(Cl)cc1Cl` belongs 118 to 125 °C; to `O=[N+]([O-])c1cc(Cl)cc2c(Cl)ccnc12`, 149 to 164 °C; to `COC1SC=C(C)NC1=O` (stereo unspecified), 157 to 160 °C.
To `Cn1nc(Sc2cc(C(F)(F)F)ccc2C(=O)O)n(C)c1=O` belongs 211 °C.
For the compound `CNC(=O)c1cc(C(=O)c2ccccc2)ccc1[N+](=O)[O-]`, the melting point stood at 138 °C.
The compound `CCOc1ccc2[nH]c3c([N+](=O)[O-])cc([N+](=O)[O-])c(Cl)c3c(=O)c2c1` showed a melting point of 238 to 241 °C.
`CCn1ccccc1=S` showed a melting point of 50 °C.
Under `CSC1CCC2C3CCC4=CC(=O)C=CC4(C)C3(F)C(O)CC12C` (stereo unspecified) stands 235 to 236 °C; under `NS(=O)(=O)c1ccc2[nH]cc(CCN3C(=O)c4ccccc4C3=O)c2c1`, 285 to 290 °C; under `CC(C)c1nc2c(s1)C(=O)N(c1cccc(C(F)(F)F)c1)C2=O`, 80 °C.
Under `CC(=O)N1CCCC1n1nccc1-c1ccc(Oc2ccc(F)cc2)cc1` (stereo unspecified) stands 90 to 95 °C; under `Oc1ccc(C(F)(F)C(F)(F)OC(F)(F)C(F)(F)OC(F)(F)C(F)(F)c2ccc(O)cc2)cc1`, 118 to 120 °C.
The compound `CCOC(=O)c1c(S(C)(=O)=O)c(N=O)c2ccccn12` had a melting point of 143 to 144 °C.
Compound `CCc1onc(-c2ccccc2)c1C(=O)NCCCN1CCN(c2ccc(F)cc2OCC(F)(F)F)CC1` returned a melting point of 115 to 117 °C.
Under `O=C1NCC(c2ccco2)SCC1N1C(=O)c2ccccc2C1=O` (stereo unspecified) stands 235 °C; under `CN(C)CCNc1ccc(O)c2c1C(=O)c1c(Cl)ccc(Cl)c1C2=O`, 125 to 130 °C; under `c1cc2c(cc1CSc1nnc(-c3ccc4c(c3)CCO4)o1)CCO2`, 130 to 132 °C.
`OC1CCN(c2ncc(-c3ccc(Cl)cc3)cn2)CC1`: the melting point fell in the range of 168 to 170 °C.
Compound `CCCc1c(OCCCCCOc2ccc(-c3cc4ccccc4c(=O)o3)cc2CCC(=O)OCC)ccc2c1OCCC2=O` showed a melting point of 144 °C.
Take `CCc1nn(C(=O)OC(C)(C)C)c2cc(-c3ccc4nnn(Cc5ccc6ncccc6c5)c4n3)ccc12`: the melting point lay within 185 to 188 °C.
As to `O=C(O)c1c2c(nc3ccc(F)cc13)-c1ccc(-c3ccc(F)cc3F)cc1CCC2`, the melting point is greater than 300 °C.
Under `NCCCCCc1nc2ccccc2[nH]1` stands 101 °C; under `Cc1sc(N)c(C(=O)c2ccsc2)c1C`, 122 to 123 °C; under `CCC1=C(C)C(=C(C#N)C#N)C(C)=C(CC)O1`, 64 to 65 °C.
To `COc1cccc(C2NC(=O)N(C(C)C)c3cc(C)ccc32)c1` (stereo unspecified) belongs 167 to 169 °C; to `N#Cc1ncc(-c2ccc(Br)cc2)cn1`, 202 to 204 °C.
`CCCc1c(OCCCOc2ccc(C(=O)OCC)cc2Cl)ccc(C(C)=O)c1O` returned a melting point of 101 to 102 °C.
To `CNC(=O)c1cccc(CN2CCN(c3nc(C)c(-c4cc(C)n[nH]4)s3)C2=O)c1` belongs 259 to 261 °C; to `O=C(OCc1ccncc1)c1ccc2[nH]c(=O)n(Cc3ccc4c(c3)OCO4)c(=O)c2c1`, 204 °C.
To `COCCCOc1cc(C[C@@H](CBr)C(C)C)ccc1OC` belongs 52 to 53 °C; to `CCn1cncc1/C=C/c1cn(-c2ccccc2)nc1OCc1ccc(OCc2nc(-c3ccco3)oc2C)c(OC)c1`, 130 to 132 °C.
To `FC(F)(F)c1cccc(Oc2cccc(-c3nnc(Nc4ccc(Cl)c(Cl)c4)s3)c2)c1` belongs 212 to 213 °C; to `Cc1ccc(/C=C/c2ccccc2[N+](=O)[O-])c([N+](=O)[O-])c1`, 170 to 171 °C; to `O=C(NO)c1cnc(N2CCC(CNS(=O)(=O)c3ccc(C(=O)Nc4ccc(Cl)c(-c5ccccn5)c4)c(Cl)c3)CC2)nc1`, 172 to 173 °C.
Take `CC1(C)OCc2cc(Cc3c[nH]cn3)ccc2O1`: the melting point fell in the range of 150 to 170 °C.
Under `COc1cc(OC)nc(NC(=O)NS(=O)(=O)c2ccccc2S(=O)(=O)OCC(F)(F)F)n1` stands 203 to 205 °C; under `O=C(NCc1cccc(O)c1)c1[nH]c2ccc(Cl)cc2c1S(=O)(=O)c1cccc(Cl)c1`, 230 to 231 °C; under `Cc1cc(-c2ccc(C(F)(F)F)cc2)nc(S(C)(=O)=O)n1`, 94 to 97 °C.
Regarding `COC(CN(C)C(=O)Nc1nnc(C(C)Oc2ccc(Cl)cc2)s1)OC` (stereo unspecified), the melting point fell in the range of 116 to 118 °C.
`COc1cc(C(C)=O)ccc1OCCCN1CCN(c2n[nH]c3cc(Cl)ccc23)CC1` returned a melting point of 132 to 134 °C.
Under `CC(C)C(=O)Nc1cc([N+](=O)[O-])c(Sc2cccc3cnccc23)cc1N` stands 219 to 221 °C; under `CCN1C(=O)C(C)(C)C(=O)N(C)c2cc(CN(CCn3ccc4oc(C)cc4c3=O)Cc3ccc4c(c3)OCO4)ccc21`, 180 to 182 °C.
On to `Cc1ccc(CN2CCC(O)CC2)cc1`, for which the melting point was in the range of 72 to 74 °C.
In turn, `CC(CN(C)C)CN1c2ccccc2OCOc2ccc(Cl)cc21` (single isomer, unassigned; (-)) showed a melting point of 92 to 95 °C.
To `CC(=O)c1sc(-c2ccc(-c3ccccc3)cc2)nc1C` belongs 124 to 125 °C; to `CCN1c2ncc(COc3ccccc3O)cc2C(=O)N(C)c2ccc(Cl)nc21`, 172 to 173 °C.
Under `CN1CCCCC1CCCc1ccccc1NC(=O)C=Cc1ccccc1` (stereo unspecified) stands 130 to 132 °C; under `CC(C)(C)C(=O)Oc1ccc(N=Nc2ccc(OC(=O)C(C)(C)C)cc2)cc1`, 185 to 188 °C.
To `COc1ccc(Cn2c(=O)[nH]c3ccc([N+](=O)[O-])cc3c2=O)cc1` belongs 254 to 256 °C; to `CN1C2C=C(c3c[nH]c4ccc(NC(=N)c5cccs5)cc34)CC1CC2` (stereo unspecified), 93 to 95 °C; to `Nc1n[nH]c2nc3cc(O)ccc3cc12`, greater than 300 °C.
`CCOC(=O)c1cn(Cc2ccc(OCc3nc(-c4ccco4)oc3C)cc2)nc1OCc1ccc(OCc2nc(-c3ccco3)oc2C)cc1` had a melting point of 133 to 134 °C.
On to `O=C(c1ccccc1)c1ccc(N2CCC(N3C(=O)OCc4ccccc43)CC2)c([N+](=O)[O-])c1`, for which the melting point was 272 to 273 °C.
To `Cc1ccc(-c2[nH]c(-c3ccncc3)nc2C(=O)Nc2nccs2)cc1` belongs greater than 250 °C; to `CCOC(=O)Cn1cc(C(=O)NCc2ccc(Cl)cc2Cl)c(OCC)n1`, 120 to 121 °C; to `CC(C)Oc1cc(-n2c(=O)c3c(n(C)c2=O)CCCC3)c(F)cc1Cl`, 143 to 145 °C.
To `CCCCCCCC/C=C\c1ccccc1/C=C/C(C)=C/C=C/C(C)=C/C(=O)O` belongs 103 to 105 °C.
Under `N#Cc1cc(N)n(-c2c(Cl)cc(C(F)(F)F)cc2Cl)n1` stands 117 to 118 °C; under `Nc1nc(N)nc(C2CCN(C(=O)c3ccccc3)CC2)n1`, 246 to 248 °C.
